In article PMC6269977, “Chemistry and Antiviral Activity of Arrabidaea pulchra (Bignoniaceae)” (Molecules, 2013):
Values after ≈ are worked out from the molar mass of the structure shown.

Assays:
[1] = system: Human herpesvirus 1 (HSV-1); test: microbe, parasite or virus in culture; format: cell-based; settings: for EC50: Human alphaherpesvirus 1; for EC50 / HSV-1 EC50: viral titer TCID50/mL 2.5 × 10^6 in 48 h, NA = no activity in the assayed concentrations
[2] = system: Vaccinia virus Western Reserve (VACV-WR); format: cell-based
[3] = in vitro; settings: African green monkey
[4] = system: Murine encephalomyocarditis virus (EMCV); format: cell-based; settings: viral titer TCID50/mL 1.0 × 10^6 in 48 h; NA = no activity in the assayed concentrations
[5] = system: Dengue virus 2 (DENV-2); test: microbe, parasite or virus in culture; format: cell-based; settings: DENV2, viral titer TCID50/mL 1.0 × 10^4 in 72 h
[6] = in vitro; settings: rhesus monkey
[7] = system: HSV-1; settings: cited from earlier work
[8] = system: HSV-2; settings: cited from earlier work
[9] = system: respiratory syncytial virus (RSV); settings: isolated from Markhamia lutea; cited from earlier work

Structure (SMILES): Nc1nc2c(ncn2COCCO)c(=O)[nH]1 [Acyclovir, reference compound]
- EC50 [1]: 40 µg/mL (≈ 178 µM)

Structure (SMILES): C[C@H]1[C@H](C)CC[C@]2(C(=O)O)CC[C@]3(C)C(=CC[C@@H]4[C@@]5(C)CC[C@H](O)C(C)(C)[C@@H]5CC[C@]43C)[C@H]12 [AP 3, ursolic acid]
- EC50 [1]: 6.2 ± 0.1 µg/mL (≈ 13.6 µM)
- HSV-1 virus inhibition ([1]; at concentrations as low 2 μg/mL, Figure 4A): 50%
- HSV-1 EC50 [1]: low activity
- VACV-WR EC50 [2]: not active
- CC50 [3]: 8.1 ± 0.9 µg/mL (≈ 17.7 µM)
- EMCV EC50 [4]: not active
- EC50 [5]: 3.2 µg/mL (≈ 7.01 µM)
- CC50 [6]: 9.9 ± 1.3 µg/mL (≈ 21.7 µM)

Structure (SMILES): C[C@@H]1O[C@@H](O[C@@H]2[C@@H](O)[C@H](OCCc3ccc(O)c(O)c3)O[C@H](CO)[C@H]2OC(=O)/C=C/c2ccc(O)c(O)c2)[C@H](O)[C@H](O)[C@H]1O [AP 1, verbascoside]
- HSV-1 EC50 [1]: no effect was observed
- VACV-WR EC50 [2]: not active
- HSV-1 EC50 [7]: 58.0 µg/mL
- anti-herpes activity ([7]; previous report): had not shown anti-herpes activity
- CC50 [3]: > 200 µg/mL
- EMCV EC50 [4]: not active
- EC50 [5]: 3.4 ± 0.4 µg/mL (≈ 5.44 µM)
- CC50 [6]: 12.9 ± 1.1 µg/mL (≈ 20.7 µM)
- HSV-2 EC50 [8]: 8.9 µg/mL
- RSV EC50 [9]: 0.80 µg/mL
